According to patent US20220348567A1, “NOVEL OXADIAZOLE COMPOUNDS CONTAINING 5- MEMBERED HETEROAROMATIC RING FOR CONTROLLING OR PREVENTING PHYTOPATHOGENIC FUNGI” (PI INDUSTRIES LTD., priority 2019, published 2022):

Assays:
Type in all cases: cell-based
[1] = system: Botrytis cinerea; experiment: Botrytis cinerea (gray mold) in vitro radial growth test on potato dextrose agar; conditions: 300 ppm; 7 days, 22° C., 90% relative humidity
[2] = system: Fusarium culmorum; experiment: Fusarium culmorum (foot rot of cereals) in vitro radial growth test on potato dextrose agar; conditions: 300 ppm; 7 days, 25° C., 60% relative humidity
Method: Compounds were dissolved in 0.3% dimethyl sulfoxide and then added to potato dextrose agar medium just prior to dispensing it into petri dishes. 5 mL medium with the compound in the desired concentration was dispensed into 60 mm sterile petri-plates. After solidification, each plate was seeded with a 5 mm size mycelial disc taken from the periphery of an actively growing virulent culture plate. Plates were incubated in growth chambers at 25° C. temperature and 60% relative humidity for seven days and then the radial growth was measured and compared to the one of the untreated control.

[3] = system: Parastagonospora nodorum; experiment: Parastagonospora nodorum (PARANO) microtiter growth inhibition assay, OD600; conditions: 18° C., 15-18 days, read-out: control (growth inhibition by OD600)
Method: Potato dextrose (PDB) liquid medium (Difco) containing a […] (10^5 spores/ml) spore suspension was prepared. For the inhibition assay, each test compound was solved in dimethyl sulfoxide. 100 μl of the test media-solution was added to a 96-well microtiter plate, consequently, the same volume (100 μl) of spore suspension was added to the well making the final test concentrations and the plate was incubated at 18° C. for 15-18 days. The growth inhibition was evaluated by measuring the OD600. Percent inhibition was calculated with the below formula: I=([…])*100 Where T=treatment, C═control, and B=blank

CS(=O)(=NC(=O)c1ccn(-c2ccc(-c3noc(C(F)(F)F)n3)cc2)c1)c1ccncc1F (stereo not drawn) [Compound 28, N-((3-fluoropyridin-4-yl)(methyl)(oxo)-λ^6-sulfanylidene)-1-(4-(5-(trifluoromethyl)-1,2,4-oxadiazol-3-yl)phenyl)-1H-pyrrole-3-carboxamide]
≥ 70%: control (radial growth compared to untreated control) [1] | control (radial growth compared to untreated control) [2] | inhibition at 300 ppm [3]
